US20210386738A1, “COMBINATION OF PRMT5 INHIBITORS AND BCL-2 INHIBITORS” (GLAXOSMITHKLINE INTELLECTUAL PROPERTY DEVELOPMENT LIMITED, priority 2018, published 2021)

Key:
Type in all cases: cell-based
lymphoma cell line DB = test: Standard 6-day growth-death assay, DB; conditions: single agent or fixed 1:1 combination; for EC50 / IC50: 144 h; for EC50: average of n=2, read-out: dEC50; for IC50: average of n=2, read-out: gIC50; for Ymin-T0 / gIC100: average of n=2
Experimental: (§1) The majority cell lines were obtained from GSK BioCat group, American Type Culture Collection (ATCC), or the Deutsche Sammlung von Mikroorganismen and Zellbulturen (DSMZ). All cell lines were maintained in growth medium in T75 cm^2 flasks, incubated at 37° C. with 5% CO2 and split every 3 to 4 days. Growth media conditions and cell line information are detailed in Table 1. Cells were counted using the Vi-Cell Analyzer (Beckman Coulter ViCell) to obtain viable cell counts.
(§2) Optimal cell seeding density was determined for all cell lines by monitoring proliferation over a range of seeding densities in 384-well format and identifying the seeding density at which cells grew logarithmically throughout six days. 50 uL of cells per well were plated in 384-well plates at the optimal seeding density in preferred supplemented culture media. Three plates were prepared per cell line and incubated overnight at 37° C. in 5% CO2.
(§3) In these studies, lymphoma cell lines were treated with PRMT5 inhibitor, compound A and BCL-2 targeted inhibitor, ABT-199 single agent or in combination using a fixed 1:1 ratio of each inhibitor over a 20-point titration. For compound A single and fixed 1:1 ratio combination with ABT-199 cell proliferation assay, cells were treated in duplicate with a 20-point, two-fold dilution series of Compound A, ABT-199 (≥14 μM top dose) single or combo treatment, and ≤0.15% DMSO final concentration. Plates were incubated for six days at the conditions described above. Cell growth was measured using CellTiter-Glo (Promega) and luminescence signal was detected with a BioTek Synergy Neo microplate reader. A plate of untreated cells was read at the time of compound/biologic addition to determine the T0 value representing the starting number of cells. Data were fit with a four-parameter equation to generate a concentration response curve using Assay Client software.
(§4) Results were background corrected by subtraction of values from wells containing no cells, expressed as a percentage of the T0 value (value at time=0), and plotted against compound concentration. The T0 value was normalized to 100% and represents the number of cells present at the time of compound addition. The cellular response was determined for each compound using a 4- or 6-parameter curve fit of cell viability against concentration using Assay Client software. Growth IC50 (gIC50) values correspond to the concentration intersecting the mid-point of the growth window (between DMSO and T0 values). Growth IC100 (gIC100) values correspond to the concentration at which 100% growth inhibition is achieved, based on the growth window. The Ymin−T0 value, a measure of net population cell growth or death, is calculated by subtracting the T0 value (100%) from the Ymin value (%) that is determined from the fit of the concentration response curve. Death EC50 (dEC50) values correspond to the concentration at which 50% net cell death is observed.
(§5) Individual curves were quality checked for three criteria: outlier data points, cell growth (population doubling ≥1.5), and proper curve fitting. […] Individual curves were QC checked for outlier data points, cell growth (population doubling ≥1.5), and proper curve fitting. Obvious outlier data points were omitted only as needed to ensure proper curve fit.
(§6) For fixed ratio screening, combination activity was assessed by the fold change in gIC50 compared to the 2 single agent curves by dividing the compound ratio as necessary. Combinations showing >3-fold and >5-fold change from single agent are described as below: • Fold changes ≥5 are considered to represent strong synergy. • Fold changes between 3.0 and 4.9 are considered to represent weak synergy. • Fold changes <3 are considered to represent no synergy.

[1] = tested on: lymphoma cell line WSU-DLCL2; test: Standard 6-day growth-death assay, WSU-DLCL2; conditions: single agent or fixed 1:1 combination; for EC50 / IC50: Homo sapiens, WSUDLCL2, 144 h; for EC50: average of n=2, read-out: dEC50; for IC50: average of n=2, read-out: gIC50; for Ymin-T0 / gIC100: average of n=2
Experimental: as §1, §2, §3, §4, §5, §6

[2] = tested on: lymphoma cell line U-2932; test: Standard 6-day growth-death assay, U-2932; conditions: single agent or fixed 1:1 combination; for EC50 / IC50: Homo sapiens, U2932, 144 h; for EC50: average of n=2, read-out: dEC50; for IC50: average of n=2, read-out: gIC50; for Ymin-T0 / gIC100: average of n=2
Experimental: as §1, §2, §3, §4, §5, §6

[3] = tested on: lymphoma cell line DOHH-2; test: Standard 6-day growth-death assay, DOHH-2; conditions: single agent or fixed 1:1 combination; for EC50 / IC50: Homo sapiens, 144 h; for EC50: average of n=2, read-out: dEC50; for IC50: average of n=2, read-out: gIC50; for Ymin-T0 / gIC100: average of n=2
Experimental: as §1, §2, §3, §4, §5, §6

| SMILES | EC50 (lymphoma cell line DB) [µM] | IC50 (lymphoma cell line DB) [µM] | Ymin-T0 (lymphoma cell line DB) [%] | gIC100 (lymphoma cell line DB) [µM] | EC50 [1] [µM] | IC50 [1] [µM] | Ymin-T0 [1] [%] | gIC100 [1] [µM] | EC50 [2] [µM] | IC50 [2] [µM] | Ymin-T0 [2] [%] | gIC100 [2] [nM] | EC50 [3] [µM] | IC50 [3] [µM] | Ymin-T0 [3] [%] | gIC100 [3] [nM] |
| --- | --- | --- | --- | --- | --- | --- | --- | --- | --- | --- | --- | --- | --- | --- | --- | --- |
| O=C(NC[C@H](O)CN1CCc2ccccc2C1)c1ccnc(NC2CCC2)c1 [Compound A] | > 14.7 | 0.862 | 194 | > 14.7 | > 14.7 | 1.17 | 2474 | > 14.7 | 3.07 | 0.281 | −88 | 1542 | 1.94 | 0.041 | −100 | 1474 |
| CC1(C)CCC(CN2CCN(c3ccc(C(=O)NS(=O)(=O)c4ccc(NCC5CCOCC5)c([N+](=O)[O-])c4)c(Oc4cnc5[nH]ccc5c4)c3)CC2)=C(c2ccc(Cl)cc2)C1 [ABT-199, venetoclax, reference compound] | > 14.7 | 2.48 | 449 | > 14.7 | > 14.7 | 6.92 | 3182 | > 14.7 | 3.07 | 0.113 | −92 | 1366 | 1.82 | 0.051 | −69 | 2897 |
